Measurements reported in patent US20210261512A1, “NOVEL COMPOUNDS” (INFLAZOME LIMITED, priority 2018, published 2021).

Biological target: NLRP3 (Homo sapiens, UniProt Q96P20)
Assay: THP-1 cells pyroptosis assay
Format: cell-based
Design: Seed THP-1 cells (25,000 cells/well) containing 1.0 μg/ml LPS; host or cells: THP-1
Settings: LPS 1.0 μg/ml, nigericin 5 μM, resazurin readout, 10 μM top dose (Example 2: top dose of 30 μM)
Method: THP-1 cells (ATCC #TIB-202) were grown in RPMI containing L-glutamine (Gibco #11835) supplemented with imM sodium pyruvate (Sigma #S8636) and penicillin (100 units/ml)/streptomycin (0.1 mg/ml) (Sigma #P4333) in 10% Fetal Bovine Serum (FBS) (Sigma #F0804). The cells were routinely passaged and grown to confluency (˜10^6 cells/ml). On the day of the experiment, THP-1 cells were harvested and resuspended into RPMI medium (without FBS). The cells were then counted and viability (>90%) checked by Trypan blue (Sigma #T8154). Appropriate dilutions were made to give a concentration of 625,000 cells/ml. To this diluted cell solution was added LPS (Sigma #L4524) to give a 1 μg/ml Final Assay Concentration (FAC). 40 μl of the final preparation was aliquoted into each well of a 96-well plate. The plate thus prepared was used for compound screening.
The following method step-by-step assay was followed for compound screening. • 1. Seed THP-1 cells (25,000 cells/well) containing 1.0 μg/ml LPS in 40 μl of RPMI medium (without FBS) in 96-well, black walled, clear bottom cell culture plates coated with poly-D-lysine (VWR #734-0317) • 2. Add 5 μl compound (8 points four-fold dilution or 8 points half-log dilution, with 10 μM top dose, unless stated otherwise) or vehicle (DMSO 0.1% FAC) to the appropriate wells • 3. Incubate for 3 hrs at 37° C. and 5% CO2 • 4. Add 5 μl nigericin (Sigma #N7143) (FAC 5 μM) to all wells • 5. Incubate for 1 hr at 37° C. and 5% CO2 • 6. At the end of the incubation period, spin plates at 300×g for 3 mins and remove supernatant • 7. Then add 50 μl of resazurin (Sigma #R^7017) (FAC 100 μM resazurin in RPMI medium without FBS) and incubate plates for a further 1-2 hrs at 37° C. and 5% CO2 • 8. Plates were read in an Envision reader at Ex 560 nm and Em 590 nm • 9. IC50 data is fitted to a non-linear regression equation (log inhibitor vs response-variable slope 4-parameters)

NLRP3, sequence (Q96P20 whole entry): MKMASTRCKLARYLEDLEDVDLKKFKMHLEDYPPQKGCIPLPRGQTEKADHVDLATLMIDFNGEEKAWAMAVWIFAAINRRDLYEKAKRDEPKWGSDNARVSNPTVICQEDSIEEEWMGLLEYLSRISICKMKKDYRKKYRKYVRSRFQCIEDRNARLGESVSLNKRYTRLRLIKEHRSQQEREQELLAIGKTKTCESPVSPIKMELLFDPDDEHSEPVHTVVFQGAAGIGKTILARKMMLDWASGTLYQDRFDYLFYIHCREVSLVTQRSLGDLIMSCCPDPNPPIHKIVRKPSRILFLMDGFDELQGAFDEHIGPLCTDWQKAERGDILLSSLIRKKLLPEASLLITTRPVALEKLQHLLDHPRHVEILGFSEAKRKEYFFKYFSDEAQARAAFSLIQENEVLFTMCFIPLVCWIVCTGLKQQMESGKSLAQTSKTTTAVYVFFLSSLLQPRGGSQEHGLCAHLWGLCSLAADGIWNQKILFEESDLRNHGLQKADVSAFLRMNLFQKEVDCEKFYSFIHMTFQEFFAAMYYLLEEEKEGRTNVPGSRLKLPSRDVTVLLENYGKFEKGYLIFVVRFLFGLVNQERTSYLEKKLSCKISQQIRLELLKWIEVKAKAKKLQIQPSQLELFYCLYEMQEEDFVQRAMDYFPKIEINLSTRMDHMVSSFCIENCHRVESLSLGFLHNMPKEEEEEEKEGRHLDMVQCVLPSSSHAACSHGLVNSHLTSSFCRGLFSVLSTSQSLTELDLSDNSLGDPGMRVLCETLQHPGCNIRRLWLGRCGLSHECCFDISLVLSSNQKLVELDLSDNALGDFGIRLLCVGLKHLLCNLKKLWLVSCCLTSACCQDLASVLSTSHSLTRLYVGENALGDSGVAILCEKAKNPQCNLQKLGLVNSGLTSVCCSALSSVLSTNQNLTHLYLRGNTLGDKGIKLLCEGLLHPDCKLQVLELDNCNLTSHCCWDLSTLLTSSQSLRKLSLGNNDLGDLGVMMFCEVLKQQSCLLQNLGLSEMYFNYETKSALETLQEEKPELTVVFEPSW

SMILES | IC50
CN1CCC(Oc2cc(-c3ccc4c(c3Nc3nnc(S(=O)(=O)N5CCC(N(C)C)CC5)[nH]3)CCC4)ccn2)CC1 [Example 321, N,N-dimethyl-1-((5-((5-(2-((1-methylpiperidin-4-yl)oxy)pyridin-4-yl)-2,3-dihydro-1H-inden-4-yl)amino)-4H-1,2,4-triazol-3-yl)sulfonyl)piperidin-4-amine] | ≤ 5 µM
O=S(=O)(c1nnc(Nc2c3c(cc4c2CCC4)CCC3)[nH]1)N1CCC2(CCOC2)C1 (stereo not shown) [Example 314, 5-(2-oxa-7-azaspiro[4.4]nonan-7-ylsulfonyl)-N-(1,2,3,5,6,7-hexahydro-s-indacen-4-yl)-4H-1,2,4-triazol-3-amine] | ≤ 5 µM
O=S(=O)(CC1CCCO1)c1nnc(Nc2c3c(cc4c2CCC4)CCC3)[nH]1 (stereo not shown) [Example 67, N-(1,2,3,5,6,7-hexahydro-s-indacen-4-yl)-3-(((tetrahydrofuran-2-yl)methyl)sulfonyl)-1H-1,2,4-triazol-5-amine] | ≤ 10 µM
COc1cc(-c2ccc3c(c2Nc2nnc(S(=O)(=O)c4ccccc4)[nH]2)CCC3)ccn1 [Example 372, N-(5-(2-methoxypyridin-4-yl)-2,3-dihydro-1H-inden-4-yl)-5-(phenylsulfonyl)-1H-1,2,4-triazol-3-amine] | ≤ 5 µM
CN1CCC[C@H](NS(=O)(=O)c2nnc(Nc3c4c(cc5c3CCC5)CCC4)[nH]2)C1 [Example 105, (S)-5-((1,2,3,5,6,7-hexahydro-s-indacen-4-yl)amino)-N-(1-methylpiperidin-3-yl)-4H-1,2,4-triazole-3-sulfonamide] | ≤ 5 µM
CN1CCCC1CS(=O)(=O)c1nnc(Nc2c3c(cc4c2CCC4)CCC3)[nH]1 (stereo not shown) [Example 61, N-(1,2,3,5,6,7-hexahydro-s-indacen-4-yl)-3-(((1-methylpyrrolidin-2-yl)methyl)sulfonyl)-1H-1,2,4-triazol-5-amine] | ≤ 10 µM
COCC1CCN(S(=O)(=O)c2nnc(Nc3c4c(cc5c3CCC5)CCC4)[nH]2)C1 (stereo not shown) [Example 283, N-(1,2,3,5,6,7-hexahydro-s-indacen-4-yl)-5-((3-(methoxymethyl)pyrrolidin-1-yl)sulfonyl)-4H-1,2,4-triazol-3-amine] | ≤ 5 µM
CN(C)c1cccc(CS(=O)(=O)c2nnc(Nc3c4c(cc5c3CCC5)CCC4)[nH]2)c1 [Example 74, 3-((3-(dimethylamino)benzyl)sulfonyl)-N-(1,2,3,5,6,7-hexahydro-s-indacen-4-yl)-1H-1,2,4-triazol-5-amine] | ≤ 5 µM
CCN(CC)CCS(=O)(=O)Cc1nnc(Nc2c3c(cc4c2CCC4)CCC3)[nH]1 [Example 373, 5-(((2-(diethylamino)ethyl)sulfonyl)methyl)-N-(1,2,3,5,6,7-hexahydro-s-indacen-4-yl)-4H-1,2,4-triazol-3-amine] | ≤ 10 µM
O=S(=O)(Nc1ccccc1)c1nnc(Nc2c3c(cc4c2CCC4)CCC3)[nH]1 [Example 85, 5-((1,2,3,5,6,7-hexahydro-s-indacen-4-yl)amino)-N-phenyl-4H-1,2,4-triazole-3-sulfonamide] | ≤ 10 µM
O=C1CC2(CN1)CN(S(=O)(=O)c1nnc(Nc3c4c(cc5c3CCC5)CCC4)[nH]1)C2 [Example 332, 2-((5-((1,2,3,5,6,7-hexahydro-s-indacen-4-yl)amino)-4H-1,2,4-triazol-3-yl)sulfonyl)-2,6-diazaspiro[3.4]octan-7-one] | ≤ 10 µM
CN1CCN(CCNS(=O)(=O)c2nnc(Nc3c4c(cc5c3CCC5)CCC4)[nH]2)CC1 [Example 131, 5-((1,2,3,5,6,7-hexahydro-s-indacen-4-yl)amino)-N-(2-(4-methylpiperazin-1-yl)ethyl)-4H-1,2,4-triazole-3-sulfonamide] | ≤ 5 µM
CN(C)C1CCN(S(=O)(=O)c2nnc(Nc3c(C4CCOCC4)ccc4c3CCC4)[nH]2)CC1 [Example 209, N,N-dimethyl-1-((5-((5-(tetrahydro-2H-pyran-4-yl)-2,3-dihydro-1H-inden-4-yl)amino)-4H-1,2,4-triazol-3-yl)sulfonyl)piperidin-4-amine] | ≤ 10 µM
CN1CCC(N(C)S(=O)(=O)c2nnc(Nc3c4c(cc5c3CCC5)CCC4)[nH]2)CC1 [Example 90, 5-((1,2,3,5,6,7-hexahydro-s-indacen-4-yl)amino)-N-methyl-N-(1-methylpiperidin-4-yl)-4H-1,2,4-triazole-3-sulfonamide] | ≤ 10 µM
COCC(C)Oc1cc(-c2c(C)cc3c(c2Nc2nnc(S(C)(=O)=O)[nH]2)CCC3)ccn1 (stereo not shown) [Example 363, N-(5-(2-((1-methoxypropan-2-yl)oxy)-pyridin-4-yl)-6-methyl-2,3-dihydro-1H-inden-4-yl)-5-(methylsulfonyl)-4H-1,2,4-triazol-3-amine] | ≤ 5 µM
O=S(=O)(c1nnc(Nc2c3c(cc4c2CCC4)CCC3)[nH]1)N1CCC(O)C1 (stereo not shown) [Example 123, 1-((5-((1,2,3,5,6,7-hexahydro-s-indacen-4-yl)amino)-4H-1,2,4-triazol-3-yl)sulfonyl)pyrrolidin-3-ol] | ≤ 5 µM
O=S(=O)(c1nnc(Nc2c3c(cc4c2CCC4)CCC3)[nH]1)N1CCn2cncc2C1 [Example 281, 5-((5,6-dihydroimidazo[1,5-a]pyrazin-7 (8H)-yl)sulfonyl)-N-(1,2,3,5,6,7-hexahydro-s-indacen-4-yl)-4H-1,2,4-triazol-3-amine] | ≤ 10 µM
CC(C)c1cc(F)cc(C(C)C)c1Cc1nnc(S(=O)(=O)Cc2ccc(F)cc2)[nH]1 [Example 28, 3-(4-fluoro-2,6-diisopropylbenzyl)-5-((4-fluorobenzyl)sulfonyl)-4H-1,2,4-triazole] | ≤ 10 µM
COc1ccc(S(=O)(=O)c2nnc(Nc3c4c(cc5c3CCC5)CCC4)[nH]2)cc1 [Example 183, N-(1,2,3,5,6,7-hexahydro-s-indacen-4-yl)-5-((4-methoxyphenyl)sulfonyl)-4H-1,2,4-triazol-3-amine] | ≤ 5 µM
CC(=O)NCCNS(=O)(=O)c1nnc(Nc2c3c(cc4c2CCC4)CCC3)[nH]1 [Example 115, N-(2-(5-((1,2,3,5,6,7-hexahydro-s-indacen-4-yl)amino)-4H-1,2,4-triazole-3-sulfonamido)ethyl)acetamide] | ≤ 5 µM
COc1ccccc1S(=O)(=O)c1nnc(Nc2c3c(cc4c2CCC4)CCC3)[nH]1 [Example 173, N-(1,2,3,5,6,7-hexahydro-s-indacen-4-yl)-5-((2-methoxyphenyl)sulfonyl)-4H-1,2,4-triazol-3-amine] | ≤ 1 µM
CN(C)CC1CCN(S(=O)(=O)c2nnc(Cc3c4c(cc5c3CCC5)CCC4)[nH]2)C1 (stereo not shown) [Example 158, 1-(1-((5-((1,2,3,5,6,7-hexahydro-s-indacen-4-yl)methyl)-4H-1,2,4-triazol-3-yl)sulfonyl)pyrrolidin-3-yl)-N,N-dimethylmethanamine] | ≤ 5 µM
Cn1ncc(S(=O)(=O)c2nnc(Nc3c4c(cc5c3CCC5)CCC4)[nH]2)c1C#N [Example 355, 4-((5-((1,2,3,5,6,7-hexahydro-s-indacen-4-yl)amino)-4H-1,2,4-triazol-3-yl)sulfonyl)-1-methyl-1H-pyrazole-5-carbonitrile] | ≤ 5 µM
O=S(=O)(CCc1ccccn1)c1nnc(Nc2c3c(cc4c2CCC4)CCC3)[nH]1 [Example 63, N-(1,2,3,5,6,7-hexahydro-s-indacen-4-yl)-3-((2-(pyridin-2-yl)ethyl)sulfonyl)-1H-1,2,4-triazol-5-amine] | ≤ 1 µM
O=S(=O)(CC1CCOC1)c1nnc(Nc2c3c(cc4c2CCC4)CCC3)[nH]1 (stereo not shown) [Example 66, N-(1,2,3,5,6,7-hexahydro-s-indacen-4-yl)-3-(((tetrahydrofuran-3-yl)methyl)sulfonyl)-1H-1,2,4-triazol-5-amine] | ≤ 10 µM
